From ChEMBL document CHEMBL1122884, “Syntheses and complement inhibitory activities of 4-(2-phenyl-1H-indol-3-yl)cyclohexane-1-carboxylic acids” (J Med Chem, 1985)

Tests used:
[1] = organism: Homo sapiens; test: In vitro inhibitory activity against human classical complement pathway; format: functional
[2] = tested on: Cavia porcellus; test: Inhibition dose of the Reverse Passive Arthus Reaction (RPAR) in guinea pig after intravenous administration at a dose 80 mg/kg; format: functional

IC50 [1] [µM] | Structure (SMILES) | inhibition in vivo at 80 mg/kg [2] [%]
105 | O=C(O)c1ccc(-c2c(-c3ccccc3)[nH]c3ccccc23)cc1 | –
135 | O=C(O)C1CC=C(c2c(-c3ccccc3)[nH]c3ccccc23)CC1 (stereo not drawn) | 64
